Experimental data taken from patent US10933145B2, “Compositions and methods for reducing the risk of radiocontrast-induced nephropathy” (UNIVERSITY OF PITTSBURGH—OF THE COMMONWEALTH SYSTEM OF …, priority 2016, dated 2021).

Legend:
[1] = system: NFAT activity in MDCK cells; assay: NFAT-luciferase reporter activity in MDCK cells; type: cell-based, Canine; details: 16 percent radiocontrast, 3 hours, MDCK cells infected with Ad-NFAT-luciferase; FIG. 2
Experimental: FIG. 2. NFAT (Nuclear Factor of Activated T-cells) activity in MDCK cells measured via NFAT-luciferase expression at increasing concentrations of radiocontrast. MDCK were engineered to contain a reporter for inflammatory NFAT activity. In particular, MDCK cells were infected with Ad-NFAT-luciferase and treated for 3 hours with […] (0-16%) of iohexol radiocontrast. NFAT activity in MDCK cells was measured via NFAT-luciferase expression.

[2] = system: NFκB activity in MDCK cells; assay: NFκB activity in MDCK cells exposed to radiocontrast, with or without calcineurin inhibitor; type: cell-based, Canine; details: MDCK cells treated with 16% radiocontrast; FIG. 4A
Description: FIG. 4A-B. NFκB activity in MDCK cells exposed to increasing amounts of radiocontrast and treated with (A) FK506 (gray bar) or DMSO (as negative control, black bar) or (B) Cyclosporin A.
NFκB activity in MDCK cells exposed to increasing amounts of radiocontrast and treated with either FK506 (FIG. 4A) or cyclosporin A (FIG. 4B).

## CC(=O)N(CC(O)CO)c1c(I)c(C(=O)NCC(O)CO)c(I)c(C(=O)NCC(O)CO)c1I (centres unmarked) [iohexol radiocontrast, iohexol]
[1]
  NFAT activation relative to control: 40 fold
[2]
  increase in NFκB activation: approximately 5 fold
